# From publication PMC7217877, “N-AS-triggered SPMs are direct regulators of microglia in a model of Alzheimer’s disease” (Nature Communications, 2020)
# Several values for one entry are separate records, joined by “and”; a condition that tells them apart may be missing. Identical values can stand only once.
# Key:
# APP/PS1 mice = assay: immunofluorescence of 6E10, Aβ40 and Aβ42 (Fig 6b-d); format: in vivo, mouse; conditions: for 6E10 immunofluorescence quantification (Figure 6b) / Aβ40 immunofluorescence quantification (Figure 6c) / Aβ42 immunofluorescence quantification (Figure 6d): APP/PS1 + N-AS, individual animals
# Experimental: Thioflavin S (Sigma-Aldrich) staining was carried out according to previously described procedures. We used 6E10 (mouse, 1:100, Signet, SIG39300), anti-20G10 (mouse, 1:1000, provided by D. R. Howlett, GlaxoSmithKline, Harlow, Essex, UK) for Aβ42, anti-G30 (rabbit, 1:1000, provided by D. R. Howlett) for Aβ40, SMA (mouse, 1:400, Sigma-Aldrich, A2547), AT8 (mouse, 1:500, Thermo Fisher Scientific, MN1020), Caspase-3 (mouse, 1:200, Novus Biologicals, NB100-56708), ac-S565 (rabbit, 1:100), COX2 (mouse, 1:250, Thermo Fisher Scientific, 35-8200), Iba1 (rabbit, 1:500, Wako, 019-19941 and goat, Abcam, ab5076), NeuN (mouse, 1:500, Millipore, MAB177), GFAP (rabbit, 1:500, Dako, N1506 and chicken, 1:500, Abcam, ab4674), and Lamp1 (mouse, 1:200, Abcam, ab24170). The sections were analyzed with a laser-scanning confocal microscope (FV3000; Olympus) or with a BX51 microscope (Olympus). MetaMorph software (Molecular Devices) was used to quantification. Three-dimensional reconstruction of microglia was recorded and analyzed using IMARIS software (Bitplane)[11]. For the analysis of age-dependent microglial COX2^+ CX3CR1^+ cells in WT and APP/PS1 mice, COX2 (rabbit, 1:100, Abcam, ab15191) and CX3CR1 (mouse, 1:100, BioLegend, 149008) antibody were used and the images were acquired on Alexa 488 and APC Channel with performed using Operetta CLS and Analysis Software 4.5 (Perkin-Elmer).
# Transgenic mouse lines over-expressing the hAPP695swe (APP) and presenilin-1M146V (PS1) mutations were originated from GlaxoSmithKline (Harlow, UK)[32] and maintained as described previously. We purchased 5×FAD mice from Jackson Labs (Stock number. 34840-JAX). Because APP/PS1 and 5xFAD mice show sex differences in disease progression, we used only male mice. To examine possible therapeutic effect of N-AS and aspirin in APP/PS1 mice, the N-AS (30 mg kg^−1, Sigma-Aldrich, 01912) was injected daily s.c. for 8 weeks to 7-months-old APP/PS1 mice until the age of 9 months, and aspirin (2 mg kg^−1, Sigma-Aldrich, A5376)[33] was administrated orally to 7-months-old APP/PS1 mice for 8 weeks. Also, to confirm possible therapeutic efficacy of N-AS in 5×FAD, the N-AS (30 mg kg^−1, Sigma-Aldrich, 01912) was injected daily s.c. for 4 weeks to 3-months-old 5×FAD mice until the age of 4 months. Block randomization method was used to allocate the animals to experimental groups. To eliminate the bias, we were blinded in experimental progress such as data collection and data analysis. Mice were housed at temperature of 22 °C and a 12 h day/12 h night cycle with free access to tap water and food pellets. All protocols were approved by the Kyungpook National University Institutional Animal Care and Use Committee.
# COX2 T564A = target: T1, COX2 T564A (Homo sapiens, UniProt P35354, T564A); assay: filter binding assay of [14C] N-AS to COX2; conditions: 0.2 uM, replicates
# T1 construct: His (N); made in house
# T1 sequence (P35354 18-604 T564A): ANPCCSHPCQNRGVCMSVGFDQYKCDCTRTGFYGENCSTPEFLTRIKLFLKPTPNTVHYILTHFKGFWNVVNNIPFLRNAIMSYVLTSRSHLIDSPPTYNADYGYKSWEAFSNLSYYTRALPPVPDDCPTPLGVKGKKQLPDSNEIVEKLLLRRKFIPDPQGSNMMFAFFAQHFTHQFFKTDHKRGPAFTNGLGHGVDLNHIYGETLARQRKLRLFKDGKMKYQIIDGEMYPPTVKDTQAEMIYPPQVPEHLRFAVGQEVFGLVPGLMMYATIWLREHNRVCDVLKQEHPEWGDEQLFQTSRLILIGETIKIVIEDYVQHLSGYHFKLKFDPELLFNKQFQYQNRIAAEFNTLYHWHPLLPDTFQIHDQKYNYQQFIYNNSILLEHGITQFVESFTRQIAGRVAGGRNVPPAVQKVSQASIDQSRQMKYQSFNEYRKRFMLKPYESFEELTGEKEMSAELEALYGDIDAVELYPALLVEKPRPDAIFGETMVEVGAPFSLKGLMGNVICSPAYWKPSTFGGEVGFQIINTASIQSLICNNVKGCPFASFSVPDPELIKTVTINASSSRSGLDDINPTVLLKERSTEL
structure (smiles),measurement,setting,value
"CCCCCCCCCCCCC/C=C/[C@@H](O)[C@H](CO)NC(C)=O [N-AS, N-((2S,3R,E)-1,3-Dihydroxyoctadec-4-en-2-yl)acetamide]",6E10 immunofluorescence quantification (Figure 6b),APP/PS1 mice; Cortex,0.0608 and 0.09453 and 0.05939 and 0.02037 and 0.005591 and 0.04313 and 0.04886 and 0.06655
same,Aβ40 immunofluorescence quantification (Figure 6c),APP/PS1 mice; Cortex,0.06419 and 0.04296 and 0.0589 and 0.2298 and 0.117 and 0.122 and 0.04359 and 0.05854
same,Aβ42 immunofluorescence quantification (Figure 6d),APP/PS1 mice; Cortex,0.1554 and 0.215 and 0.1788 and 0.1001 and 0.1191 and 0.09457 and 0.1824 and 0.177
same,6E10 immunofluorescence quantification (Figure 6b),APP/PS1 mice; Hippocampus,0.04847 and 0.07321 and 0.02799 and 0.04609 and 0.00742 and 0.009448 and 0.05438 and 0.09253
same,Aβ40 immunofluorescence quantification (Figure 6c),APP/PS1 mice; Hippocampus,0.07041 and 0.04924 and 0.02685 and 0.04786 and 0.1308 and 0.07762 and 0.09677 and 0.1893 and 0.1045
same,Aβ42 immunofluorescence quantification (Figure 6d),APP/PS1 mice; Hippocampus,0.2679 and 0.3316 and 0.148 and 0.1454 and 0.2815 and 0.3706 and 0.09586 and 0.279 and 0.395
same,"Aβ levels by immunofluorescence of 6E10, Aβ40, Aβ42",APP/PS1 mice; N-AS vs vehicle APP/PS1,significantly lower Aβ levels
same,binding velocity (Vbinding),COX2 T564A,0.196 nM/min and 0.240 nM/min and 0.096 nM/min
